Numbers after ± are expanded uncertainties.
Conditions: Crystal; DTA

Normal melting temperature: 119.00 ± 0.5 °C
SMILES: COc1ccc2[nH]c(SCc3ncc(C)c(OC)c3C)nc2c1 [Omeprazole sulfide]
